Target: T1, human serum albumin (HSA) (Homo sapiens, UniProt P02768)
T1 construct: gene ALB; mature serum albumin, 585 residues (signal and propeptide removed)
Assay: tryptophan fluorescence quenching, modified Stern-Volmer
Format: binding
Details: 298 K, pH 7.4, 0.1 M Tris, 0.1 M NaCl, 1 µM HSA, excitation 280 nm; mainly site II (subdomain IIIA)
Excerpt: tryptophan fluorescence quenching, modified Stern-Volmer on human serum albumin (HSA)

T1 sequence (P02768 25-609): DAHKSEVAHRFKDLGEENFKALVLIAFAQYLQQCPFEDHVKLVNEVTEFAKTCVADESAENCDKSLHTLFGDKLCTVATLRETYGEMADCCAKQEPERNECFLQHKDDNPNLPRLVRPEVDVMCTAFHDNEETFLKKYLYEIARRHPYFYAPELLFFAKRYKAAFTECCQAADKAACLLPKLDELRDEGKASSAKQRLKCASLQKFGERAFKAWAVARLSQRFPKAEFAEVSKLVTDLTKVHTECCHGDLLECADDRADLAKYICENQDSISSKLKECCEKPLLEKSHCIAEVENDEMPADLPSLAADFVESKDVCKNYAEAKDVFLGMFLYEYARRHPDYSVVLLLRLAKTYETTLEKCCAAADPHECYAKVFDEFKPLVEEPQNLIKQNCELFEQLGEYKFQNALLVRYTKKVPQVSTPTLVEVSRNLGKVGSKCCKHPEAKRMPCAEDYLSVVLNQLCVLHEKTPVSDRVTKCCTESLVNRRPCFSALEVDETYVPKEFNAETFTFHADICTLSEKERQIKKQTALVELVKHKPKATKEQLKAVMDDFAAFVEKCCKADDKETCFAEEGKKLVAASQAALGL

| Ka (×10^4 M^-1) | SMILES |
| --- | --- |
| 2.16 × 10^4 M^−1 | CC(C)(C)CC(=O)N1c2ccc(Cl)cc2C(=O)N(N=Cc2ccccc2)C1c1ccccc1 (stereo not shown) [3a, 3-(Benzylideneamino)-6-chloro-1-(3,3-dimethylbutanoyl)-2-phenyl-2,3-dihydroquinazolin-4(1H)-one] |
| 2.33 × 10^4 M^−1 | CC(C)(C)CC(=O)N1c2ccc(Cl)cc2C(=O)N(N=Cc2ccc(F)cc2)C1c1ccccc1 (stereo not shown) [3b, 6-Chloro-1-(3,3-dimethylbutanoyl)-3-(4-fluorobenzylideneamino)-2-phenyl-2,3-dihydroquinazolin-4(1H)-one] |
| 2.73 × 10^4 M^−1 | CC(C)(C)CC(=O)N1c2ccc(Cl)cc2C(=O)N(N=Cc2cccc(F)c2)C1c1ccccc1 (stereo not shown) [3c, 6-Chloro-1-(3,3-dimethylbutanoyl)-3-(3-fluorobenzylideneamino)-2-phenyl-2,3-dihydroquinazolin-4(1H)-one] |
| 2.46 × 10^4 M^−1 | CC(C)(C)CC(=O)N1c2ccc(Cl)cc2C(=O)N(N=Cc2ccccc2F)C1c1ccccc1 (stereo not shown) [3d, 6-Chloro-1-(3,3-dimethylbutanoyl)-3-(2-fluorobenzylideneamino)-2-phenyl-2,3-dihydroquinazolin-4(1H)-one] |
